Tests used:
Assay in all cases: relative viability (nuclei count vs DMSO), 5 days (fraction); higher = more cells survive
A-427 = test system: A-427
Procedure, shortened: (§1)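 Relative viability equals treated-well nuclei counts divided by vehicle-well nuclei counts. Counts came from 4× images of lung cancer cell lines grown in 1536-well plates for 5 days after pin-tool dosing on the day after seeding. Dosing used one drug alone or a fixed anchor-drug dose plus five library-drug doses (not always all listed) in √10 steps, and values are medians of duplicate plates.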

ChaGo-K-1 = test system: ChaGo-K-1
Procedure, shortened: as §1

EKVX = test system: EKVX
Procedure, shortened: as §1

H3255 = test system: H3255
Procedure, shortened: as §1

LK-2 = test system: LK-2
Procedure, shortened: as §1

NCI-H1355 = test system: NCI-H1355
Procedure, shortened: as §1

NCI-H1666 = test system: NCI-H1666
Procedure, shortened: as §1

NCI-H1755 = test system: NCI-H1755
Procedure, shortened: as §1

NCI-H1944 = test system: NCI-H1944
Procedure, shortened: as §1

NCI-H2085 = test system: NCI-H2085
Procedure, shortened: as §1

NCI-H2347 = test system: NCI-H2347
Procedure, shortened: as §1

NCI-H3122 = test system: NCI-H3122
Procedure, shortened: as §1

NCI-H322M = test system: NCI-H322M
Procedure, shortened: as §1

NCI-H358 = test system: NCI-H358
Procedure, shortened: as §1

NCI-H441 = test system: NCI-H441
Procedure, shortened: as §1

NCI-H460 = test system: NCI-H460
Procedure, shortened: as §1

NCI-H596 = test system: NCI-H596
Procedure, shortened: as §1

NCI-H650 = test system: NCI-H650
Procedure, shortened: as §1

NCI-H838 = test system: NCI-H838
Procedure, shortened: as §1

## O=c1[nH]c2ccccc2n1C1CCN(CCCC(c2ccc(F)cc2)c2ccc(F)cc2)CC1 [Pimozide] + NC(=O)Nc1cc(-c2cccc(F)c2)sc1C(=O)N[C@H]1CCCNC1 [AZD7762] (partner 0.2 µM)
A-427; first compound 0.08 µM
  relative viability: 0.711
A-427; first compound 0.253 µM
  relative viability: 0.703
A-427; first compound 0.8 µM
  relative viability: 0.764
A-427; first compound 2.53 µM
  relative viability: 0.637
A-427; first compound 8 µM
  relative viability: 0.676
ChaGo-K-1; first compound 0.08 µM
  relative viability: 0.914
ChaGo-K-1; first compound 0.253 µM
  relative viability: 0.871
ChaGo-K-1; first compound 0.8 µM
  relative viability: 0.88
ChaGo-K-1; first compound 2.53 µM
  relative viability: 0.803
ChaGo-K-1; first compound 8 µM
  relative viability: 0.824
EKVX; first compound 0.253 µM
  relative viability: 0.711
EKVX; first compound 0.8 µM
  relative viability: 0.618
EKVX; first compound 2.53 µM
  relative viability: 0.749
EKVX; first compound 8 µM
  relative viability: 0.592
H3255; first compound 0.253 µM
  relative viability: 0.858
H3255; first compound 0.8 µM
  relative viability: 0.777
H3255; first compound 2.53 µM
  relative viability: 0.838
H3255; first compound 8 µM
  relative viability: 0.879
LK-2; first compound 0.08 µM
  relative viability: 0.539
LK-2; first compound 0.253 µM
  relative viability: 0.438
LK-2; first compound 0.8 µM
  relative viability: 0.376
LK-2; first compound 8 µM
  relative viability: 0.417
NCI-H1355; first compound 0.08 µM
  relative viability: 0.757
NCI-H1355; first compound 0.253 µM
  relative viability: 0.732
NCI-H1355; first compound 0.8 µM
  relative viability: 0.701
NCI-H1355; first compound 2.53 µM
  relative viability: 0.641
NCI-H1355; first compound 8 µM
  relative viability: 0.761
NCI-H1666; first compound 0.08 µM
  relative viability: 0.803
NCI-H1666; first compound 0.253 µM
  relative viability: 0.831
NCI-H1666; first compound 0.8 µM
  relative viability: 0.76
NCI-H1666; first compound 2.53 µM
  relative viability: 0.747
NCI-H1666; first compound 8 µM
  relative viability: 0.881
NCI-H1755; first compound 0.08 µM
  relative viability: 0.727
NCI-H1755; first compound 0.253 µM
  relative viability: 0.42
NCI-H1755; first compound 0.8 µM
  relative viability: 0.47
NCI-H1755; first compound 2.53 µM
  relative viability: 0.533
NCI-H1755; first compound 8 µM
  relative viability: 0.46
NCI-H1944; first compound 0.08 µM
  relative viability: 0.659
NCI-H1944; first compound 2.53 µM
  relative viability: 0.443
NCI-H1944; first compound 8 µM
  relative viability: 0.524
NCI-H2085; first compound 0.08 µM
  relative viability: 0.937
NCI-H2085; first compound 0.253 µM
  relative viability: 0.971
NCI-H2085; first compound 0.8 µM
  relative viability: 0.922
NCI-H2085; first compound 2.53 µM
  relative viability: 1.07
NCI-H2085; first compound 8 µM
  relative viability: 0.953
NCI-H2347; first compound 0.08 µM
  relative viability: 0.782
NCI-H2347; first compound 0.253 µM
  relative viability: 0.689
NCI-H2347; first compound 0.8 µM
  relative viability: 0.723
NCI-H2347; first compound 2.53 µM
  relative viability: 0.736
NCI-H2347; first compound 8 µM
  relative viability: 0.744
NCI-H3122; first compound 0.08 µM
  relative viability: 0.977
NCI-H3122; first compound 0.253 µM
  relative viability: 0.882
NCI-H3122; first compound 0.8 µM
  relative viability: 0.963
NCI-H3122; first compound 2.53 µM
  relative viability: 1.05
NCI-H3122; first compound 8 µM
  relative viability: 0.825
NCI-H322M; first compound 0.08 µM
  relative viability: 0.502
NCI-H322M; first compound 0.253 µM
  relative viability: 0.538
NCI-H322M; first compound 0.8 µM
  relative viability: 0.58
NCI-H322M; first compound 2.53 µM
  relative viability: 0.625
NCI-H322M; first compound 8 µM
  relative viability: 0.387
NCI-H358; first compound 0.08 µM
  relative viability: 0.565
NCI-H358; first compound 0.253 µM
  relative viability: 0.67
NCI-H358; first compound 0.8 µM
  relative viability: 0.625
NCI-H358; first compound 2.53 µM
  relative viability: 0.508
NCI-H358; first compound 8 µM
  relative viability: 0.505
NCI-H441; first compound 0.08 µM
  relative viability: 1.32
NCI-H441; first compound 0.253 µM
  relative viability: 0.806
NCI-H441; first compound 0.8 µM
  relative viability: 1.26
NCI-H441; first compound 2.53 µM
  relative viability: 1.09
NCI-H441; first compound 8 µM
  relative viability: 1.04
NCI-H460; first compound 0.08 µM
  relative viability: 0.615
NCI-H460; first compound 0.253 µM
  relative viability: 0.539
NCI-H460; first compound 0.8 µM
  relative viability: 0.625
NCI-H460; first compound 2.53 µM
  relative viability: 0.693
NCI-H460; first compound 8 µM
  relative viability: 0.549
NCI-H596; first compound 0.08 µM
  relative viability: 1.17
NCI-H596; first compound 0.253 µM
  relative viability: 1.31
NCI-H596; first compound 0.8 µM
  relative viability: 1.31
NCI-H596; first compound 2.53 µM
  relative viability: 1.19
NCI-H596; first compound 8 µM
  relative viability: 1.04
NCI-H650; first compound 0.08 µM
  relative viability: 1.17
NCI-H650; first compound 0.253 µM
  relative viability: 0.983
NCI-H650; first compound 0.8 µM
  relative viability: 0.831
NCI-H650; first compound 2.53 µM
  relative viability: 0.909
NCI-H650; first compound 8 µM
  relative viability: 0.693
NCI-H838; first compound 0.08 µM
  relative viability: 0.937
NCI-H838; first compound 0.253 µM
  relative viability: 0.946
NCI-H838; first compound 0.8 µM
  relative viability: 0.908
NCI-H838; first compound 2.53 µM
  relative viability: 0.938
NCI-H838; first compound 8 µM
  relative viability: 0.966

Reference: the supplement of paper PMC10307832
